The values below come from ChEMBL document CHEMBL1201862, “PubChem BioAssay data set” (2004).

The structures appear in SMILES notation.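 Tested at 5 concentrations; 48 h exposure; 96-well plates; endpoints linearly interpolated, else capped at highest concentration. GI50 = concentration required for 50% inhibition of growth.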 Calls of active or inactive are those of the source. Rule as the data show it: active = GI50 up to about 1.1 µM and inactive = higher.

Test systems include SK-OV-3; OVCAR-8; MDA-MB-435; HT-29; NCI-H23; NCI-H522; SK-MEL-2; NCI/ADR-RES; Malme-3M; HOP-92; TK-10; SNB-19; MOLT-4; RPMI-8226; LOX IMVI; Hs-578T; A549; IGROV-1; KM12; HL-60.
Assay in all cases: growth of human tumour cells (NCI), 48 h

Consider `CCOc1c2ccsc2c(OCC)c2ccsc12`, for which the GI50 in the experiment on SK-OV-3 is 3.92 µM (inactive); in the experiment with OVCAR-8, 6.24 µM (inactive); with MDA-MB-435 it was 0.766 µM (active); in the experiment on HT-29, 3.48 µM (inactive); in the experiment with NCI-H23, 4.34 µM (inactive); with NCI-H522, 3.27 µM (inactive). Moreover, the GI50 was > 30.1 µM (inactive) with SK-MEL-2; 7.05 µM (inactive) in the experiment on NCI/ADR-RES; 3.73 µM (inactive) with Malme-3M; 2.57 µM (inactive) with HOP-92; > 100 µM (inactive) in the experiment on TK-10; 4.37 µM (inactive) in the experiment with SNB-19. For the same compound, the GI50 with MOLT-4 is 3.52 µM (inactive); in the experiment on RPMI-8226, 4.06 µM (inactive); in the experiment with LOX IMVI, 2.61 µM (inactive); in the experiment on Hs-578T it was 4.21 µM (inactive); with A549, 7.21 µM (inactive); with IGROV-1, 5.06 µM (inactive). The GI50 was 3.77 µM (inactive) in the experiment with KM12 and 2.07 µM (inactive) in the experiment on HL-60.

Consider `CC(NNC(=O)c1ccncc1)c1ccc(Cl)cc1Cl` (stereo not given), for which the GI50 in the experiment on SK-OV-3, in the experiment with OVCAR-8, in the experiment with MDA-MB-435, in the experiment with HT-29, in the experiment with NCI-H23 and with NCI-H522 was > 100 µM (inactive) throughout. The GI50 was > 100 µM (inactive) with SK-MEL-2; 93.8 µM (inactive) in the experiment on NCI/ADR-RES; > 100 µM (inactive) in the experiment with Malme-3M; 70.6 µM (inactive) with HOP-92; > 100 µM (inactive) in the experiment with TK-10; > 100 µM (inactive) with SNB-19. Also, the GI50 in the experiment with MOLT-4 is 83.8 µM (inactive); in the experiment on RPMI-8226 it was 77.8 µM (inactive); in the experiment with LOX IMVI, 86.5 µM (inactive); with Hs-578T, > 100 µM (inactive); in the experiment with A549 it was > 100 µM (inactive); with IGROV-1, > 100 µM (inactive). Also, the GI50 in the experiment on KM12 was 49.3 µM (inactive); in the experiment on HL-60, 46.5 µM (inactive).

As for `O=C1Nc2ccccc2/C1=N/NS(=O)(=O)c1ccc(C(=O)O)cc1`, the GI50 in the experiment with SK-OV-3, in the experiment with OVCAR-8, in the experiment with MDA-MB-435, in the experiment with HT-29, in the experiment on NCI-H23 and in the experiment on NCI-H522 was > 100 µM (inactive) each time. For the same compound, the GI50 in the experiment on SK-MEL-2, with NCI/ADR-RES, in the experiment on Malme-3M, in the experiment with HOP-92, with TK-10 and with SNB-19 was > 100 µM (inactive) each time. The GI50 in the experiment with MOLT-4, in the experiment with RPMI-8226, in the experiment with LOX IMVI, in the experiment on Hs-578T, with A549 and in the experiment on IGROV-1 was > 100 µM (inactive) throughout. Moreover, the GI50 in the experiment with KM12 and in the experiment on HL-60 was > 100 µM (inactive) throughout.

On to `O=C(NC(=O)c1ccccc1[N+](=O)[O-])Nc1ccc(Oc2ncc(Cl)cn2)c(C(F)(F)F)c1`, for which the GI50 is < 0.01 µM (active) in the experiment with SK-OV-3; 0.0236 µM (active) in the experiment on OVCAR-8; < 0.01 µM (active) in the experiment with MDA-MB-435; 0.0105 µM (active) in the experiment with HT-29; 0.0257 µM (active) in the experiment on NCI-H23; < 0.01 µM (active) in the experiment with NCI-H522. In addition, the GI50 is < 0.01 µM (active) with SK-MEL-2; < 0.01 µM (active) in the experiment on NCI/ADR-RES; < 0.01 µM (active) in the experiment with Malme-3M; < 0.01 µM (active) in the experiment with HOP-92; 20.1 µM (inactive) with TK-10; 0.0218 µM (active) in the experiment with SNB-19. Besides, the GI50 was 0.047 µM (active) with MOLT-4; 0.0208 µM (active) with RPMI-8226; 0.0262 µM (active) in the experiment with LOX IMVI; < 0.01 µM (active) with Hs-578T; 0.0183 µM (active) in the experiment on A549; 0.0213 µM (active) in the experiment on IGROV-1. For the same compound, the GI50 with KM12 and in the experiment with HL-60 was < 0.01 µM (active) throughout.
